Assay results from patent US12220410B2, “Antitumor composition” (priority 2019, dated 2025).
Where two headings read alike, the source gives them in different places.

Key:
[1] = tested on: human diffuse large B-cell lymphoma (DLBCL) cell line OCI-Ly7; assay: In vitro cell growth inhibition test, OCI-Ly7 (cell viability, combination index); type: cell-based; conditions: compound A 0 nM, OCI-Ly7
[2] = tested on: human follicular lymphoma cell line DOHH-2; assay: In vitro cell growth inhibition test (CellTiter-Fluor), DOHH-2; type: cell-based; conditions: for IC50: Homo sapiens, DOHH-2, 120 h; for FIC (fractional inhibitory concentration): DOHH-2
[3] = tested on: human diffuse large B-cell lymphoma cell line OCI-Ly7; type: in vivo
[4] = tested on: human diffuse large B-cell lymphoma cell line OCI-Ly7; type: in vivo; remark: listed apart in the source
[5] = tested on: human acute myelogenous leukemia (AML) cell line KG-1; type: in vivo
[6] = tested on: human acute myelogenous leukemia (AML) cell line KG-1; type: in vivo; remark: listed apart in the source
[7] = tested on: human breast cancer cell line MDA-MB-453; assay: In vivo antitumor effect test, MDA-MB-453 tumor, compound A and lapatinib (Example 37); design: species or system NOD-SCID mice
Procedure: The tumor volume was calculated from tumor diameters by the following formula: (Long diameter×[Short diameter]^2×0.5). Using the calculated tumor volume value, the relative tumor volume (ratio of the tumor volume on the day of measurement to the baseline tumor volume on Day 1) was calculated. […] Further, the tumor growth delay rate (% TGD) was calculated according to the following formula: % TGD={(T−C)/C}×100, Where: • T: […] relative tumor volume of the control group to reach 1600% 6) Statistical Analysis
Compound A was suspended in a 1% hypromellose solution to prepare 20 mg/mL test substance suspensions (a suspension for preparing a single administration solution and a suspension for preparing a 100 mg/kg combined administration solution). The 20 mg/mL test substance suspensions were diluted with a 1% hypromellose solution to prepare 10 mg/mL (100 mg/kg administration solution), 6 mg/mL (suspension for preparing a 30 mg/kg combined administration solution), and 3 mg/mL (30 mg/kg administration solution) test substance suspensions. Lapatinib was suspended in a 1% hypromellose solution to prepare a 20 mg/mL suspension for preparing a 100 mg/kg lapatinib combined administration solution. The 20 mg/mL suspension was diluted with a 1% hypromellose solution to prepare a 10 mg/mL suspension for 100 mg/kg single administration. The administration solution of the combination group was prepared by mixing the 6 mg/mL compound A suspension and the 20 mg/mL lapatinib suspension at 1:1, or mixing the 20 mg/mL compound A suspension and the 20 mg/mL lapatinib suspension at 1:1.
MDA-MB-453 was obtained from ATCC. […] The collected cells were suspended in serum-free RPMI 1640 medium at 1.0×10^8 cells/mL.
5-week-old female NOD-SCID mice (NOD.CB17-Prkdcscid/J, produced by Charles River Japan Co., Ltd.) were used. The female NOD-SCID mice were bred in the same manner as in Example 36. The cell suspension was inoculated at 2×10^7 cells/body into the subcutaneous space of the right axillary region of the 6-week-old NOD-SCID mice, and the mice were grouped in the same manner as in Example 36 using the tumor volume as an index.
The administration was started on the next day of the grouping (Day 2), and compound A and lapatinib were orally administered once a day for 28 consecutive days. Each group (N=8) was treated as follows. • (1) Control (solvent control) group: 1% hypromellose solution • (2) Compound A (30 mg/kg) treated group: 30 mg/kg of compound A (oral administration once a day for 28 consecutive days) • (3) Compound A (100 mg/kg) treated group: 100 mg/kg of compound A (oral administration once a day for 28 consecutive days) • (4) Lapatinib (100 mg/kg) treated group: 100 mg/kg of lapatinib (oral administration once a day for 28 consecutive days) • (5) Combination group 1: 30 mg/kg of compound A (oral administration once a day for 28 consecutive days)+100 mg/kg of lapatinib (oral administration once a day for 28 consecutive days) • (6) Combination group 2: 100 mg/kg of compound A (oral administration once a day for 28 consecutive days)+100 mg/kg of lapatinib (oral administration once a day for 28 consecutive days)

[8] = tested on: human diffuse large B-cell lymphoma cell line OCI-Ly7; type: in vivo; remark: listed apart in the source
[9] = bendamustine 15 mg/kg intraperitoneally on Days 2, 3, 4, 5, 6, relative tumor volume 1600%
[10] = cyclophosphamide 50 mg/kg intraperitoneally on Days 2, 5, 9, 12, relative tumor volume 1600%
[11] = lapatinib 100 mg/kg orally once a day for 28 days, relative tumor volume 200%
[12] = rituximab 10 mg/kg intraperitoneally on Days 2, 9, 16, relative tumor volume 600%

## Cn1c(CCCC(=O)O)nc2cc(N(CCCl)CCCl)ccc21 [Bendamustine]
[1]; bendamustine 1.25 nM
  Cell viability (ratio relative to the drug-free control): 0.93
[1]; bendamustine 2.5 nM
  Cell viability (ratio relative to the drug-free control): 0.87
[1]; bendamustine 5 nM
  Cell viability (ratio relative to the drug-free control): 0.66
[1]; bendamustine 10 nM
  Cell viability (ratio relative to the drug-free control): 0.29
[2]; read-out: IC50 value of bendamustine in each concentration of compound A, compound A 0 nM (bendamustine alone), DOHH-2, 1000 cells/well, 120 hours
  IC50: 9870 nM
[2]; read-out: IC50 value of bendamustine in each concentration of compound A, compound A 39.1 nM, DOHH-2, 120 hours
  IC50: 5590 nM
[2]; read-out: IC50 value of bendamustine in each concentration of compound A, compound A 78.1 nM, DOHH-2, 120 hours
  IC50: 2960 nM
[2]; read-out: IC50 value of bendamustine in each concentration of compound A, compound A 156.3 nM, DOHH-2, 120 hours
  IC50: 1500 nM
[2]; read-out: IC50 value of bendamustine in each concentration of compound A, compound A 312.5 nM, DOHH-2, 120 hours
  IC50: 40.5 nM
[2]; bendamustine fixed at 0 nM, compound A at its IC50
  FIC (fractional inhibitory concentration): 0
[2]; bendamustine fixed at 1250 nM, compound A at its IC50
  FIC (fractional inhibitory concentration): 0.127
[2]; bendamustine fixed at 2500 nM, compound A at its IC50
  FIC (fractional inhibitory concentration): 0.253
[2]; bendamustine fixed at 5000 nM, compound A at its IC50
  FIC (fractional inhibitory concentration): 0.506
[2]; compound A fixed at 0 nM, bendamustine at its IC50
  FIC (fractional inhibitory concentration): 1
[2]; compound A fixed at 39.1 nM, bendamustine at its IC50
  FIC (fractional inhibitory concentration): 0.566
[2]; compound A fixed at 78.1 nM, bendamustine at its IC50
  FIC (fractional inhibitory concentration): 0.300
[2]; compound A fixed at 156.3 nM, bendamustine at its IC50
  FIC (fractional inhibitory concentration): 0.152
[2]; compound A fixed at 312.5 nM, bendamustine at its IC50
  FIC (fractional inhibitory concentration): 0.004
[3]; 30 mg/kg of compound A, 15 mg/kg of bendamustine
  effectiveness of monotherapy (tumor growth delay): effective
[3]; bendamustine 15 mg/kg intraperitoneally on Days 2, 3, 4, 5, 6
  Median Time (time for relative tumor volume to reach 1600%): 24.3 days
[3]; [9]
  Tumor growth delay: 8.8 days
  Tumor growth delay rate: 56.5%

## O=P1(N(CCCl)CCCl)NCCCO1 (centres unmarked) [Cyclophosphamide, reference compound]
[4]; 30 or 100 mg/kg of compound A, 50 mg/kg of cyclophosphamide
  effectiveness of monotherapy (tumor growth delay): effective
[4]; cyclophosphamide 50 mg/kg intraperitoneally on Days 2, 5, 9, 12
  Median Time (time for relative tumor volume to reach 1600%): 23.4 days
[4]; [10]
  Tumor growth delay: 10.7 days
  Tumor growth delay rate: 83.9%

## Nc1ccn([C@@H]2O[C@H](CO)[C@@H](O)[C@@H]2O)c(=O)n1 [Cytarabine, reference compound]
[5]; compound A 30 mg/kg, cytarabine 50 mg/kg
  antitumor effect on KG-1 tumor (monotherapy): antitumor effect
[5]; cytarabine monotherapy 50 mg/kg intraperitoneally, 5-day administration and 2-day cessation, Day 16
  T/C (ratio of relative tumor volume of treated group to control group): 62.3%

## Nc1ncn([C@H]2C[C@H](O)[C@@H](CO)O2)c(=O)n1 [Decitabine, 5-aza-2′-deoxycytidine, reference compound]
[6]; compound A 30 mg/kg, decitabine 1 mg/kg
  antitumor effect on KG-1 tumor (monotherapy): antitumor effect
[6]; decitabine monotherapy 1 mg/kg intraperitoneally, twice a week, Day 23
  T/C (ratio of relative tumor volume of treated group to control group): 27.7%

## CS(=O)(=O)CCNCc1ccc(-c2ccc3ncnc(Nc4ccc(OCc5cccc(F)c5)c(Cl)c4)c3c2)o1 [Lapatinib, reference compound]
[7]; 30 or 100 mg/kg of compound A, 100 mg/kg of lapatinib
  effectiveness of monotherapy (tumor growth delay): effective
[7]; lapatinib 100 mg/kg orally once a day for 28 days
  Median Time (time for relative tumor volume to reach 200%): 34.2 days
[7]; [11]
  Tumor growth delay: 11.4 days
  Tumor growth delay rate: 50.0%

## Rituximab: anti-CD20 antibody; Rituxan (trademark) 100 mg/10 mL, purchased from Genentech [reference compound]
[8]; 30 mg/kg of compound A, 10 mg/kg of rituximab
  effectiveness of monotherapy (tumor growth delay): effective
[8]; rituximab 10 mg/kg intraperitoneally on Days 2, 9, 16
  Median Time (time for relative tumor volume to reach 600%): 28.4 days
[8]; [12]
  Tumor growth delay: 12.1 days
  Tumor growth delay rate: 74.2%
